From paper PMC10065799, “High-throughput profiling of sequence recognition by tyrosine kinases and SH2 domains using bacterial peptide display” (eLife, 2023)
Square brackets hold non-standard residues; d marks the D form. pY = N[C@@H](Cc1ccc(OP(=O)(O)O)cc1)C(=O)O

Legend:
c-Src kinase domain [1] = biological target: T1, c-Src kinase domain (Homo sapiens, UniProt P12931); experiment: RP-HPLC assay to measure peptide phosphorylation kinetics; type: biochemical; details: purified peptide substrate
Description: To validate the enrichment scores observed in the c-Src screening data, the phosphorylation rates were measured in vitro with the purified catalytic domain of c-Src and synthetic 11-residue peptides derived from sequences in the pTyr-Var library. […] Reactions were initiated by adding 1 mM ATP. At various time points, 100 μL aliquots were removed and quenched by the addition of EDTA to a final concentration of 25 mM. Each time point sample was analyzed by analytical RP-HPLC, monitoring absorbance at 214 nm. Forty μL of each time point was injected onto a C18 column (ZORBAX 300 SB-C18, 5 μm, 4.6x150 mm). The solvent system used was water with 0.1% trifluoroacetic acid (solvent A) and acetonitrile with 0.1% trifluoroacetic acid (solvent B). […] The fractional product peak area was plotted as a function of reaction time, and the initial linear regime of this plot was fitted to a straight line to determine a reaction rate. Rates were corrected for substrate and enzyme concentration. Reactions were done in triplicate or quadruplicate.

c-Abl kinase domain [2] = biological target: T2, c-Abl kinase domain (Mus musculus, UniProt P00520); experiment: as above; type: biochemical; details: purified peptide substrate
T2 sequence (P00520 242-493 limits assumed): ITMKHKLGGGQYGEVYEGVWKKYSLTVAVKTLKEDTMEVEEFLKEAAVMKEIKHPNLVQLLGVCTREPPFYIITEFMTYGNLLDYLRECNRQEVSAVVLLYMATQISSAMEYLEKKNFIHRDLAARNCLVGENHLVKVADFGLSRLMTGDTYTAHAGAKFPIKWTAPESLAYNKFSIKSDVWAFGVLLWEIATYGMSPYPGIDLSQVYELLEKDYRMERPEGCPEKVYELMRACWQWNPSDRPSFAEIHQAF

c-Src kinase domain [3] = biological target: T1, c-Src kinase domain; experiment: pTyr-Var library bacterial peptide display kinase screen (enrichment scores); type: biochemical; details: for Screen: sheet "Src";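 as to AncSZ hit?: Hit requires p below 0.05 and at least twofold variant vs reference change plus filters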;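 as to Fyn hit?: Hit requires p below 0.05 and at least twofold variant vs reference change plus filters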;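 as to c-Abl hit?: Hit requires p below 0.05 and at least twofold variant vs reference change plus filters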;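 as to c-Src hit?: Hit requires p below 0.05 and at least twofold variant vs reference change plus filters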
Fer kinase domain = experiment: as above; type: biochemical, mouse; details: for Screen: sheet "Fer"
EPHB1 kinase domain = experiment: as above; type: biochemical, human
EPHB2 kinase domain = experiment: as above; type: biochemical, human; details: for Screen: sheet EPHB2, effect of variant peptide relative to its reference peptide in the pTyr-Var library screen (enrichment scores)
Fyn kinase domain = experiment: as above; type: biochemical, human
Hck kinase domain = experiment: as above; type: biochemical, human
c-Abl kinase domain [4] = biological target: T2, c-Abl kinase domain; experiment: as above; type: biochemical
Jak2 = experiment: as above; type: biochemical, human
AncSZ kinase domain = experiment: as above; type: biochemical
Fes = experiment: as above; type: biochemical
FGFR1 kinase domain = experiment: as above; type: biochemical, human
FGFR3 kinase domain = experiment: as above; type: biochemical, human
MERTK kinase domain = experiment: as above; type: biochemical, human
c-Src SH2 domain = c-Src SH2 domain (Homo sapiens, UniProt P12931); experiment: pTyr-Var library SH2 domain screen with SH2-dynabeads (enrichment scores); details: sheet c-Src
SHP2 C-SH2 domain = experiment: as above
Grb2 SH2 domain = experiment: as above
[5] = biological target: human c-Src SH2 domain (residues 143-250) (human, UniProt P12931-1 143-250, biotin on the Avi tag (co-expression with the biotin ligase BirA)); experiment: fluorescence polarisation; competition: unlabeled phosphopeptide serially diluted against 30 nM fluorescent peptide and 240 nM (1.5 x KD) c-Src SH2; same buffer; 25 °C; cubic binding equation; details: both partners purified
[6] = mean of log2 of enrichment over R1-R4
[7] = pTyr-Var library, enrichment score, replicate 1
[8] = pTyr-Var library, enrichment score, replicate 3
[9] = pTyr-Var library, enrichment score, replicate 4
[10] = variant versus reference peptide
[11] = variant versus reference peptide, significant hit TRUE/FALSE
[12] = mean of log2(variant) minus mean of log2(reference)
[13] = mean of log2 enrichment of variant peptide, n = 5
[14] = mean of log2 enrichment of variant peptide, n = 4
[15] = effect of the variant peptide relative to its reference peptide in the pTyr-Var library screen
[16] = value of the variant peptide against its reference peptide in the pTyr-Var library screen with Fer

Ac-EGWQVYRLGAR-NH2 [MISP_Y95, pTyr-Var library phosphosite peptide, non-canonical c-Src substrate]
Phosphorylation Rate (c-Src kinase domain [1]): 0.701 s⁻¹

Ac-LFSEYASVQV-NH2 [SIRPA_Y496_P491L, pTyr-Var library variant peptide, non-canonical c-Abl substrate]
Phosphorylation Rate (c-Abl kinase domain [2]): 0.182 s⁻¹ | Screen (c-Src kinase domain [3]; variant peptide versus its reference peptide in the pTyr-Var library screen): -0.1318 | Screen (Fer kinase domain; variant peptide relative to its reference peptide, pTyr-Var library screen enrichment): 0.5649 | Screen (variant relative to reference peptide, measured in the pTyr-Var library screen) (EPHB1 kinase domain; sheet "EPHB1", variant seq vs reference seq, bacterial peptide display enrichment): 0.2454 | Screen (EPHB2 kinase domain): 0.1232

ATGLIYIGSHD [AASDH_Y870_T865A]
c-Src mean of log2(enrichment) (c-Src kinase domain [3]; [6]): -1.071 | c-Src enrich. R1 (c-Src kinase domain [3]; [7]): 0.5345 | c-Src enrich. R3 (c-Src kinase domain [3]; [8]): 0.3128 | c-Src enrich. R4 (c-Src kinase domain [3]; [9]): 0.6339 | c-Src difference (mean log2 variant - mean log2 reference) (c-Src kinase domain [3]; [10]): 0.2235 | c-Src hit? (c-Src kinase domain [3]; [11]): FALSE | Fyn mean of log2(enrichment) (Fyn kinase domain; [6]): -1.279 | Fyn enrich. R1 (Fyn kinase domain; [7]): 0.5717 | Fyn enrich. R3 (Fyn kinase domain; [8]): 0.2668 | Fyn enrich. R4 (Fyn kinase domain; [9]): 0.4414 | Fyn difference (mean log2 variant - mean log2 reference) (Fyn kinase domain; [10]): 0.2007 | Fyn hit? (Fyn kinase domain; [11]): FALSE | Hck mean of log2(enrichment) (Hck kinase domain; mean of log2(variant) / mean of log2(reference), R1-R4): 0.4694 | Hck enrich. R1 (Hck kinase domain; [7]): 0.8875 | Hck enrich. R3 (Hck kinase domain; [8]): 0.3766 | Hck enrich. R4 (Hck kinase domain; [9]): 0.194 | Hck difference (variant - reference) (Hck kinase domain; [10]): 0.009668 | Hck hit? (Hck kinase domain; [11]): FALSE | c-Abl mean of log2(enrichment) (c-Abl kinase domain [4]; [6]): -0.2804 | c-Abl enrich. R1 (c-Abl kinase domain [4]; [7]): 0.635 | c-Abl enrich. R3 (c-Abl kinase domain [4]; [8]): 0.7155 | c-Abl enrich. R4 (c-Abl kinase domain [4]; [9]): 1.499 | c-Abl hit? (c-Abl kinase domain [4]; [11]): FALSE | Jak2 mean of log2(enrichment) (Jak2; mean of log2 of enrichment over R1-R3): -0.3116 | Jak2 enrich. R1 (Jak2; [7]): 0.8629 | Jak2 enrich. R3 (Jak2; [8]): 0.7054 | Jak2 difference (mean log2 variant - mean log2 reference) (Jak2; [10]): 0.1735 | Jak2 hit? (Jak2; [11]): FALSE | AncSZ mean of log2(enrichment) (AncSZ kinase domain; mean of log2 of enrichment over R1-R5): -0.2868 | AncSZ enrich. R1 (AncSZ kinase domain; [7]): 0.8707 | AncSZ enrich. R3 (AncSZ kinase domain; [8]): 0.8843 | AncSZ enrich. R4 (AncSZ kinase domain; [9]): 0.9628 | AncSZ enrich. R5 (AncSZ kinase domain; pTyr-Var library, enrichment score, replicate 5): 0.6734 | AncSZ difference (mean log2 variant - mean log2 reference) (AncSZ kinase domain; [10]): 0.1813 | AncSZ hit? (AncSZ kinase domain; [11]): FALSE | Fer mean of log2(enrichment) (Fer kinase domain; [6]): -1.02 | Fer enrich. R1 (Fer kinase domain; [7]): 0.4993 | Fer enrich. R3 (Fer kinase domain; [8]): 0.7968 | Fer enrich. R4 (Fer kinase domain; [9]): 0.4647 | Fer difference (mean log2 variant - mean log2 reference) (Fer kinase domain; [10]): 0.2779 | Fer hit? (Fer kinase domain; [11]): FALSE | Fes mean of log2(enrichment) (Fes; mean of log2 of enrichment over R1-R6): 0.1901 | Fes enrichment (mean) (Fes; pTyr-Var library, enrichment score, mean of replicates R1-R6): 1.145 | Fes difference (mean log2 variant - mean log2 reference) (Fes; [10]): 0.6008 | difference (FGFR1 kinase domain; [12]): -0.06079 | mean of log2(variant) (FGFR1 kinase domain; [13]): -1.25 | difference (FGFR3 kinase domain; [12]): 0.03027 | mean of log2(variant) (FGFR3 kinase domain; [13]): -0.6189 | difference (EPHB1 kinase domain; [12]): 0.11 | mean of log2(variant) (EPHB1 kinase domain; [14]): -0.4876 | difference (EPHB2 kinase domain; [12]): 0.3789 | mean of log2(variant) (EPHB2 kinase domain; [14]): -0.4994 | difference (MERTK kinase domain; [12]): 0.7784 | mean of log2(variant) (MERTK kinase domain; [14]): -0.9082 | difference (c-Src SH2 domain; [12]): -0.1239 | mean of log2(variant) (c-Src SH2 domain; mean of log2 enrichment of variant peptide, R1-R3): -0.9155 | difference (SHP2 C-SH2 domain; SHP2-C SH2, mean of log2(variant) minus mean of log2(reference)): -0.2085 | mean of log2(variant) (SHP2 C-SH2 domain; SHP2-C SH2, mean of log2 enrichment of variant, R1-R3): -0.9356 | hit? (SHP2 C-SH2 domain; SHP2-C SH2, variant versus reference significant hit call): FALSE | difference (Grb2 SH2 domain; Grb2 SH2, mean of log2(variant) minus mean of log2(reference)): -0.4428 | mean of log2(variant) (Grb2 SH2 domain; Grb2 SH2, mean of log2 enrichment of variant, R1-R3): -0.4021 | hit? (Grb2 SH2 domain; Grb2 SH2, variant versus reference significant hit call): FALSE

ELANLYHHVWM [BICD2_Y538_C542W]
Screen (c-Src kinase domain [3]; [15]): 0.8025 | Screen (c-Abl kinase domain [4]; fig5-data2, sheet "Abl", Screen for the variant/reference peptide pair, pTyr-Var library): -0.8428 | Screen (Fer kinase domain; [16]): 2.831 | Screen (EPHB1 kinase domain; sheet EPHB1, effect of the variant peptide relative to its reference peptide in the pTyr-Var library screen (enrichment scores)): 3.328 | Screen (EPHB2 kinase domain): 1.55

Ac-VASSLYDIFAR-NH2 [GLB1_Y294_L297F, pTyr-Var library variant phosphosite peptide]
Phosphorylation Rate (c-Src kinase domain [1]): 1.477 s⁻¹ | Screen (c-Src kinase domain [3]; [15]): 1.173 | Screen (Fer kinase domain; [16]): 0.6922 | Screen (EPHB2 kinase domain): 0.8382

Ac-SVEELYAIPPD-NH2 [PEAK1_Y797, pTyr-Var library phosphosite peptide]
Phosphorylation Rate (c-Abl kinase domain [2]): 0.407 s⁻¹

B1: ACTB_Y240 phosphopeptide Ac-QSLEKS(pY)ELPDGG-NH2 (peptide)
peptide: Ac-QSLEKS[pY]ELPDGG-NH2
SMILES: CC(=O)N[C@@H](CCC(N)=O)C(=O)N[C@@H](CO)C(=O)N[C@@H](CC(C)C)C(=O)N[C@@H](CCC(=O)O)C(=O)N[C@@H](CCCCN)C(=O)N[C@@H](CO)C(=O)N[C@@H](Cc1ccc(OP(=O)(O)O)cc1)C(=O)N[C@@H](CCC(=O)O)C(=O)N[C@@H](CC(C)C)C(=O)N1CCC[C@H]1C(=O)N[C@@H](CC(=O)O)C(=O)NCC(=O)NCC(N)=O
notes: source: synthetic peptide (synthesized in-house, RP-HPLC purified)
binding result [5]: binds

B2: ACTB_Y240_P243L phosphopeptide Ac-QSLEKS(pY)ELLDGG-NH2 (peptide)
peptide: Ac-QSLEKS[pY]ELLDGG-NH2
SMILES: CC(=O)N[C@@H](CCC(N)=O)C(=O)N[C@@H](CO)C(=O)N[C@@H](CC(C)C)C(=O)N[C@@H](CCC(=O)O)C(=O)N[C@@H](CCCCN)C(=O)N[C@@H](CO)C(=O)N[C@@H](Cc1ccc(OP(=O)(O)O)cc1)C(=O)N[C@@H](CCC(=O)O)C(=O)N[C@@H](CC(C)C)C(=O)N[C@@H](CC(C)C)C(=O)N[C@@H](CC(=O)O)C(=O)NCC(=O)NCC(N)=O
notes: as for B1
binding result [5]: binds

B3: CCDC39_Y593 phosphopeptide Ac-QRKQQL(pY)TAMEEG-NH2 (peptide)
peptide: Ac-QRKQQL[pY]TAMEEG-NH2
SMILES: CSCC[C@H](NC(=O)[C@H](C)NC(=O)[C@@H](NC(=O)[C@H](Cc1ccc(OP(=O)(O)O)cc1)NC(=O)[C@H](CC(C)C)NC(=O)[C@H](CCC(N)=O)NC(=O)[C@H](CCC(N)=O)NC(=O)[C@H](CCCCN)NC(=O)[C@H](CCCNC(=N)N)NC(=O)[C@H](CCC(N)=O)NC(C)=O)[C@@H](C)O)C(=O)N[C@@H](CCC(=O)O)C(=O)N[C@@H](CCC(=O)O)C(=O)NCC(N)=O
notes: as for B1
binding result [5]: binds
